Assay results published in ChEMBL document CHEMBL1148271, “3-(2-pyrrolidin-1-ylethyl)-5-(1,2,3,6-tetrahydropyridin-4-yl)-1H-indole derivatives as high affinity human 5-HT(1B/1D) ligands” (Bioorg Med Chem Lett, 2004).

Key:
[1] = molecular target: 5-hydroxytryptamine receptor 1D (Homo sapiens, UniProt P28221); test: Binding affinity was evaluated at the cloned human 5-hydroxytryptamine 1D receptor
[2] = molecular target: 5-hydroxytryptamine receptor 1B (Homo sapiens, UniProt P28222); test: Binding affinity was evaluated at the cloned human 5-hydroxytryptamine 1B receptor
Sequence of 5-hydroxytryptamine receptor 1B (P28222 whole entry): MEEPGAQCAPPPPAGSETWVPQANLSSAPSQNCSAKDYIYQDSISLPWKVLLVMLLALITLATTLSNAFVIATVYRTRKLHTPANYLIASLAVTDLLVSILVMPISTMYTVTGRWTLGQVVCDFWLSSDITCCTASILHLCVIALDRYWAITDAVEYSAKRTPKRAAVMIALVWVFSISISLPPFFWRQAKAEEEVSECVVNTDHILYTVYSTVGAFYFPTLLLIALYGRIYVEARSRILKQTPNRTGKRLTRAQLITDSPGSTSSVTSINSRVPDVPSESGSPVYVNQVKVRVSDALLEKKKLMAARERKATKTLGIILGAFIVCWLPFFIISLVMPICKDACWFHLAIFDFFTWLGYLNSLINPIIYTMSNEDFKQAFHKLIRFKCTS

[3] = molecular target: Serotonin 1 receptors; 5-HT1B & 5-HT1D (Homo sapiens) (UniProt P28222+P28221); test: Binding affinity ratio was evaluated (5-HT1B / 5-HT1D receptor); format: protein assay

Sequence of 5-hydroxytryptamine receptor 1D (P28221 whole entry): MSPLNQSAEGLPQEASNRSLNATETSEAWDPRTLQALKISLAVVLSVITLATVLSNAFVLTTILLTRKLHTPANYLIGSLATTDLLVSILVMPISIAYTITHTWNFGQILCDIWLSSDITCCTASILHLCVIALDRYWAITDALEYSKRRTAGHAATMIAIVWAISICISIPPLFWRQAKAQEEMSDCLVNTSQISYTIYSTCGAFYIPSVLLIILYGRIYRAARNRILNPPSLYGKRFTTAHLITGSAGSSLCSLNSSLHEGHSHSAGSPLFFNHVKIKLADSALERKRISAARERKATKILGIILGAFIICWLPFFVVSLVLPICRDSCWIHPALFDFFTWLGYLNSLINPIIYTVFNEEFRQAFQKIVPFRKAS

Structure (SMILES)	Ki [1] [nM]	Ki [2] [nM]	Ratio [3]
O=S(=O)(c1ccc(Cl)cc1)N1CC=C(c2ccc3[nH]cc(CCN4CCCC4)c3c2)CC1	9.3	110	12
Cc1ccc(S(=O)(=O)N2CC=C(c3ccc4[nH]cc(CCN5CCCC5)c4c3)CC2)cc1	12	140	12
S=C(NC12CC3CC(CC(C3)C1)C2)N1CC=C(c2ccc3[nH]cc(CCN4CCCC4)c3c2)CC1	29	170	5.9
C1=C(c2ccc3[nH]cc(CCN4CCCC4)c3c2)CCNC1	74	760	10
CN(C)CCc1c[nH]c2ccc(C3=CCN(C)CC3)cc12			76
O=S(=O)(c1ccccc1)N1CC=C(c2ccc3[nH]cc(CCN4CCCC4)c3c2)CC1	21	440	21

The remaining lines, values ahead:

Ki [1] [nM]	Ki [2] [nM]	Ratio [3]	Structure (SMILES)
11	140	13	COc1ccc(S(=O)(=O)N2CC=C(c3ccc4[nH]cc(CCN5CCCC5)c4c3)CC2)cc1
7.8	44	5.6	COc1ccc(NC(=O)N2CC=C(c3ccc4[nH]cc(CCN5CCCC5)c4c3)CC2)cc1
6.2	58	9.3	COc1ccc(NC(=S)N2CC=C(c3ccc4[nH]cc(CCN5CCCC5)c4c3)CC2)cc1
27	410	15	O=S(=O)(c1cccc2ccccc12)N1CC=C(c2ccc3[nH]cc(CCN4CCCC4)c3c2)CC1
29	64	2.2	O=C(NC12CC3CC(CC(C3)C1)C2)N1CC=C(c2ccc3[nH]cc(CCN4CCCC4)c3c2)CC1
8.8	65	7.6	O=C(Nc1cccc2ccccc12)N1CC=C(c2ccc3[nH]cc(CCN4CCCC4)c3c2)CC1
